Read-outs that look alike come from different tables or passages of the source.
Target: T1, androgen receptor (AR) (Homo sapiens, UniProt P10275, T878A)
T1 construct: endogenous in cells; host or cells: LNCaP
T1 sequence (P10275 1-920 T878A): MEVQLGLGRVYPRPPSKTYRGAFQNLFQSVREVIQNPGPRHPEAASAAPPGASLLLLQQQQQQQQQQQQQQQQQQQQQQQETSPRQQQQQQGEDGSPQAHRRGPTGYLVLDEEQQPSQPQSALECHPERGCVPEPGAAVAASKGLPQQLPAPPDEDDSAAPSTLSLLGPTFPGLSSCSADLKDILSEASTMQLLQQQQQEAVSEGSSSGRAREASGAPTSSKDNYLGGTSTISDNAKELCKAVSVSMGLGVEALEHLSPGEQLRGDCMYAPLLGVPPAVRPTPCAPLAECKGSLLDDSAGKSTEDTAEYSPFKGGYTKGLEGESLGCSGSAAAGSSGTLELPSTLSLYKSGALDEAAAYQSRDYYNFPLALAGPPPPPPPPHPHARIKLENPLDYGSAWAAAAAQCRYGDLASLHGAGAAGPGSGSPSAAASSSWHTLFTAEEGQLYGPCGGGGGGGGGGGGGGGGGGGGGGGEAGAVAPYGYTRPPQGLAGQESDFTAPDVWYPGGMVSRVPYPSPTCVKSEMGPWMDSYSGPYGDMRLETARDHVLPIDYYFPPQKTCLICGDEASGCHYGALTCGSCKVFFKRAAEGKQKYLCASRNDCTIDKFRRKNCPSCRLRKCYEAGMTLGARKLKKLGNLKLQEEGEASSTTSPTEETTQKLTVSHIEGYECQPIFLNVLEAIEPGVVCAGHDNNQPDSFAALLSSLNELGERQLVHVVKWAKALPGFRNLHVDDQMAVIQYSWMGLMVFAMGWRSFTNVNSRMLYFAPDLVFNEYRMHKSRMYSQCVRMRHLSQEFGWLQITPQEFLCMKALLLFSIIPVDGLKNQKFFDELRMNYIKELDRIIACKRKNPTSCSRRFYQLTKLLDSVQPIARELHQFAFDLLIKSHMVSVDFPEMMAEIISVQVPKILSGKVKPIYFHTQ
Test: PSA (6.1 kb)-luciferase reporter assay in LNCaP cells induced with R1881
Type: cell-based
Conditions: LNCaP cells transfected with PSA (6.1 kb)-luciferase, 1 h pre-treatment, R1881 (1 nM) 24 h
Experimental: LNCaP cells were transiently transfected with PSA (6.1 kb)-luciferase for 24 h prior to pre-treatment with compounds of the invention (e.g., Compound 1c) ranging in concentration from 62.5 ng/ml to 1.5 ug/ml for 1 hour before the addition of vehicle, or synthetic androgen, R1881 (1 nM) to induce luciferase production. After 24 h of incubation with R1881, the cells were harvested, and relative luciferase activities were determined. To determine the IC50, treatments were normalized to the predicted maximal activity induction (in the absence of test compounds, vehicle only).

IC50 (Trial 1, read-out: IC50, Trial 1): 14 µM
IC50 (Trial 2, read-out: IC50, Trial 2): 19.4 µM
IC50 (Trial 3, read-out: IC50, Trial 3): 17 µM
IC50 (Trial 4, read-out: IC50, Trial 4): 15.8 µM
IC50 (average of trials, read-out: Average IC50): 16.7 ± 2.68 µM
SMILES: CC(C)(c1ccc(OC[C@H](O)CO)cc1)c1ccc(OC[C@@H](Cl)CO)cc1 [Compound 1c, (R)-3-(4-(2-(4-((S)-2-chloro-3-hydroxypropoxy)phenyl)propan-2-yl)phenoxy)propane-1,2-diol]
